Reference: patent publication US10676486B2, “Macrocyclic RIP2 kinase inhibitors” (ONCODESIGN S.A., priority 2014, dated 2020)

Experiments:
RIP2 recombinant protein = RIP2 recombinant protein (Homo sapiens, UniProt O43353); assay: Radiometric protein kinase assay (33PanQinase Activity Assay) for RIP2, peptide-based; type: biochemical; conditions: for remaining activity at 0.1 µM / remaining activity at 1 µM: 1 h; for remaining activity at 0.1 µM: compound at 0.1 μM; for remaining activity at 1 µM: compound at 1 μM; for IC50: ATP 3.0 μM, RIP2 15.7 nM, 30° C., 60 minutes
Procedure: The inhibition of RIP2 kinase was assessed using RIP2 recombinant protein in an in vitro peptide-based kinase assay.
A radiometric protein kinase assay (^33PanQinase® Activity Assay) is used for measuring the kinase activity. All assays are performed in 96-well FlashPlates™ from Perkin Elmer in a 50 μl reaction volume. The reaction cocktail is pipetted in 4 steps in the following order: • 10 μl of non-radioactive ATP solution (in H2O) • 25 μl of assay buffer/[γ-^33P]-ATP mixture • 5 μl of test sample in 10% DMSO • 10 μl of enzyme/substrate mixture
The assay for RIP2 contains 70 mM HEPES-NaOH pH 7.5, 3 mM MgCl2, 3 mM MnCl2, 3 μM Na-orthovanadate, 1.2 mM DTT, 50 μg/mI PEG20000, ATP (3.0 μM), [γ-^33P]-ATP (approx. 5×10^05 cpm per well), protein kinase RIP2 (15.7 nM) and substrate (RBER-Chktide), 2.0 μg/50 μl).
The reaction cocktails were incubated at 30° C. for 60 minutes. The reaction was stopped with 50 μl of 2% (v/v) H3PO4, plates were aspirated and washed two times with 200 μl 0.9% (w/v) NaCl. Incorporation of ^33Pi (counting of “cpm”) was determined with a microplate scintillation counter.
The compounds are dissolved to 10 mM in DMSO. Where needed, solutions are sonicated in a bath sonicator.
Table 4 provides the pIC50 values and % Remaining activity values at two concentrations (1 μM and 0.1 μM) of the compounds according to the invention, obtained using the above mentioned kinase assay.

[1] = several clinical cases; The Oncologist (2013) 18: e3-e5; cited from earlier work
RIP2 = biological target: T1, RIP2 (Mus musculus, UniProt P58801); conditions: mouse models of chronic inflammatory bowel diseases; J Biol Chem. (2005) 15, 14981-14988; cited from earlier work
T1 construct: host or cells: mouse (in vivo colitis models)
T1 sequence (P58801 whole entry): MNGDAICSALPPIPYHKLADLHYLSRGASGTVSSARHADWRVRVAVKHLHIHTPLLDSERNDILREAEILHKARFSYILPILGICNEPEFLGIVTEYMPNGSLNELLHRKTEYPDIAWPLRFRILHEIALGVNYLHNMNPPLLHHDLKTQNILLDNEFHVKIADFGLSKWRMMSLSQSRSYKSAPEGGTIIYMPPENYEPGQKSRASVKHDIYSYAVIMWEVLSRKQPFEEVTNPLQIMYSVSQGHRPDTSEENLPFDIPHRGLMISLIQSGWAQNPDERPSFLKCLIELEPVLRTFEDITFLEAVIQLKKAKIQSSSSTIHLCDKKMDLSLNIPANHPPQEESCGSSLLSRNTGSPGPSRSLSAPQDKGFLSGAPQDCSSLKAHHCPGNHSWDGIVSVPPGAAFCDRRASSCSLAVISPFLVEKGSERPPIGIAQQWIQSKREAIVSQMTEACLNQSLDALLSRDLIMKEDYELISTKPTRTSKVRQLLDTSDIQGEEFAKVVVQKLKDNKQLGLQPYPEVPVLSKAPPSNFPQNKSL

RIP2 recombinant protein, sequence (O43353 whole entry): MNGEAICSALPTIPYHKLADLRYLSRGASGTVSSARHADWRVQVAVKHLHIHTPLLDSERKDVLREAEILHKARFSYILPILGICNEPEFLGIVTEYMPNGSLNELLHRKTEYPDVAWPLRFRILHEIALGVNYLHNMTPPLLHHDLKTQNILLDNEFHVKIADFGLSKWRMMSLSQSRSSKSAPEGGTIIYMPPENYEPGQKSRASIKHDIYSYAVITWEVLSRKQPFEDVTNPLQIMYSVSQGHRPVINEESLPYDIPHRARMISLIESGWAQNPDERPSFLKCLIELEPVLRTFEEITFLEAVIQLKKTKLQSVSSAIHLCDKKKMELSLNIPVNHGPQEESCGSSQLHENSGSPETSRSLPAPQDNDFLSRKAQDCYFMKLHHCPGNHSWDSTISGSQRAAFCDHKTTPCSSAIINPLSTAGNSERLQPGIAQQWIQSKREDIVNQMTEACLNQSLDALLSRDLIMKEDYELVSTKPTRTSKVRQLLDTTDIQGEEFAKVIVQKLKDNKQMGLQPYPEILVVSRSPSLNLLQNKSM

Row | SMILES | remaining activity at 0.1 µM (RIP2 recombinant protein) | remaining activity at 1 µM (RIP2 recombinant protein) | IC50 (RIP2 recombinant protein) | melting point | clinical effect on psoriasis, arthritic symptoms or insulin-resistant type 2 diabetes [1] | effect on induced colitis (RIP2)
1 | Clc1cc2cc(c1)-c1cnn3ccc(nc13)NC[C@@H]1CCCN1CCCO2 [Compound O9] | < 50% | < 50% | < 0.1 µM | > 300 °C |  | 
2 | Fc1cc2cc(c1)-c1cnn3ccc(nc13)NCC1CCCCN1CCCO2 (stereo not drawn) [Compound O14] |  |  | < 0.1 µM |  |  | 
3 | COc1cc2ncnc(Nc3ccc(F)c(Cl)c3)c2cc1OCCCN1CCOCC1 [Gefitinib] |  |  |  |  | efficient to clear psoriasis or reduce arthritic symptoms or insulin-resistant type 2 diabetes | 
4 | Fc1cc2cc(c1)-c1cnn3ccc(nc13)NC[C@H]1CCCN1CCCO2 [Compound O6] | < 50% | < 50% | < 0.1 µM | > 300 °C |  | 
5 | C[S+]([O-])c1ccc(-c2nc(-c3ccncc3)c(-c3ccc(F)cc3)[nH]2)cc1 (stereo not drawn) [SB203580] |  |  |  |  |  | efficacious to reduce induced-colitis
6 | Fc1cc2cc(c1)-c1cnn3ccc(nc13)NCC[C@H]1CCCN1CCO2 [Compound O7] | < 50% | < 50% | < 0.1 µM | > 300 °C |  | 
7 | Fc1c(Cl)cc2cc1OCCN1CCC[C@H]1CNc1ccn3ncc-2c3n1 [Compound O12] | < 50% | < 50% | < 0.1 µM |  |  | 
8 | Fc1cc2cc(c1)-c1cnn3ccc(nc13)NC[C@@H]1CCCN1CCCO2 [Compound O11] | < 50% | < 50% | < 0.1 µM |  |  | 
9 | C#Cc1cccc(Nc2ncnc3cc(OCCOC)c(OCCOC)cc23)c1 [Erlotinib] |  |  |  |  | efficient to clear psoriasis or reduce arthritic symptoms or insulin-resistant type 2 diabetes | 

Second part, led by results:

Row | remaining activity at 0.1 µM (RIP2 recombinant protein) | remaining activity at 1 µM (RIP2 recombinant protein) | IC50 (RIP2 recombinant protein) | melting point | SMILES | clinical effect on psoriasis, arthritic symptoms or insulin-resistant type 2 diabetes [1] | effect on induced colitis (RIP2)
10 | < 50% | < 50% | < 0.1 µM | > 300 °C | Clc1cc2cc(c1)-c1cnn3ccc(nc13)NC[C@@H]1CCCN1CCO2 [Compound O4] |  | 
11 | < 50% | < 50% | < 0.1 µM | > 300 °C | c1cc2cc(c1)-c1cnn3ccc(nc13)NC[C@@H]1CCCN1CCO2 [Compound O8] |  | 
12 | < 50% | < 50% | < 0.1 µM | > 300 °C | c1cc2cc(c1)-c1cnn3ccc(nc13)NCC1CCCN1CCO2 (stereo not drawn) [Compound O1] |  | 
13 | < 50% | < 50% | < 0.1 µM |  | Fc1cc2cc(c1)-c1cnn3ccc(nc13)NCC1CCCCN1CCO2 (stereo not drawn) [Compound O13] |  | 
14 | < 50% | < 50% | < 0.1 µM | 198.5 °C | CN1C[C@@H]2CCCN2CCOc2cccc(c2)-c2cnn3ccc1nc23 [Compound O10] |  | 
15 |  |  | < 0.1 µM | 91.2 °C | CN1CC2CCCN2CCOc2cccc(c2)-c2cnn3ccc1nc23 (stereo not drawn) [Compound O2] |  | 
16 | < 50% | < 50% | < 0.1 µM | 241 °C | Fc1cc2cc(c1)-c1cnn3ccc(nc13)NC[C@@H]1CCCN1CCO2 [Compound O5] |  | 
17 | < 50% | < 50% | < 0.1 µM | 186.4 °C | Clc1cc2cc(c1)-c1cnn3ccc(nc13)NC[C@H]1CCCN1CCCO2 [Compound O3] |  | 
